“And” between values parts separate entries of the source, which are not always exact repeats. Identical values can stand only once.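 How tested: cells in 96-well plates exposed to compound for 48 hours at five concentrations. Abbreviation: GI50, concentration required for 50% inhibition of growth. At the TGI there is no net growth.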
Columns and labels:
Experiment in all cases: NCI-60 cell line screen, 48 h
HCT-15 colon = tested on: HCT-15 colon
KM12 colon = tested on: KM12 colon
LOX IMVI melanoma = tested on: LOX IMVI melanoma
MALME-3M melanoma = tested on: MALME-3M melanoma
NCI-H226 lung = tested on: NCI-H226 lung
SF-268 CNS = tested on: SF-268 CNS
SF-295 CNS = tested on: SF-295 CNS
SNB-75 CNS = tested on: SNB-75 CNS
U251 CNS = tested on: U251 CNS
UO-31 renal = tested on: UO-31 renal

`Nc1ccc(C(=O)/C=C/c2ccccc2O)cc1` showed a TGI (HCT-15 colon) greater than 100 µM, a TGI (KM12 colon) greater than 100 µM and a TGI (LOX IMVI melanoma) greater than 100 µM. For the same compound, the TGI (MALME-3M melanoma) was greater than 100 µM, the TGI (NCI-H226 lung) was greater than 100 µM and the TGI (SF-268 CNS) was greater than 100 µM. The TGI (SF-295 CNS) was greater than 100 µM, the TGI (SNB-75 CNS) was greater than 100 µM and the TGI (U251 CNS) was greater than 100 µM. It also gave a TGI (UO-31 renal) greater than 100 µM.
Compound `CCSc1ncc(Br)c(Sc2nc(N)nc3nc[nH]c23)n1` has a GI50 (HCT-15 colon) of 4.07 µM, a TGI (HCT-15 colon) greater than 100 µM and a GI50 (KM12 colon) of 7.05 µM. For the same compound, the TGI (KM12 colon) was greater than 100 µM, the GI50 (LOX IMVI melanoma) was 2.39 µM and the TGI (LOX IMVI melanoma) was greater than 100 µM. The GI50 (MALME-3M melanoma) was 1.25 µM, the TGI (MALME-3M melanoma) was 34.3 µM and the GI50 (NCI-H226 lung) was 2.59 µM. For the same compound, the TGI (NCI-H226 lung) was greater than 100 µM, the GI50 (SF-268 CNS) was 3 µM and the TGI (SF-268 CNS) was greater than 100 µM. It also gave a GI50 (SF-295 CNS) of 1.82 µM, a TGI (SF-295 CNS) greater than 100 µM and a GI50 (SNB-75 CNS) of 1.57 µM. For the same compound, the TGI (SNB-75 CNS) was 14 µM, the GI50 (U251 CNS) was 18.1 µM and the TGI (U251 CNS) was greater than 100 µM. The GI50 (UO-31 renal) was 2.3 µM and the TGI (UO-31 renal) was greater than 100 µM.
In the case of `N#CCCN(CCC#N)c1ccc(C=Nc2ccc(F)cc2)cc1`, the TGI (HCT-15 colon) is reported as greater than 100 µM, the TGI (KM12 colon) is reported as greater than 100 µM and the TGI (LOX IMVI melanoma) is reported as greater than 100 µM. The TGI (MALME-3M melanoma) was greater than 100 µM, the TGI (NCI-H226 lung) was greater than 100 µM and the TGI (SF-268 CNS) was greater than 100 µM. It also gave a TGI (SF-295 CNS) greater than 100 µM, a TGI (SNB-75 CNS) greater than 100 µM and a TGI (U251 CNS) greater than 100 µM. The TGI (UO-31 renal) was greater than 100 µM.
Compound `CC1=C2[C@@H](CC1)[C@]1(C)O[C@@](C3CC3)(C[C@H]1OC(=O)CO)[C@H]2OC(=O)/C=C/c1ccccc1` has a GI50 (HCT-15 colon) of 13.6 µM, a TGI (HCT-15 colon) of 29.3 µM and a GI50 (KM12 colon) of 16.6 µM. It also gave a TGI (KM12 colon) of 32.3 µM, a GI50 (LOX IMVI melanoma) of 15.1 µM and a TGI (LOX IMVI melanoma) of 31.8 µM. The GI50 (MALME-3M melanoma) was 15.6 µM, the TGI (MALME-3M melanoma) was 32.8 µM and the GI50 (NCI-H226 lung) was 16.2 µM. It also gave a TGI (NCI-H226 lung) of 36.5 µM, a GI50 (SF-268 CNS) of 4.03 µM and a TGI (SF-268 CNS) of 23.1 µM. It also gave a GI50 (SF-295 CNS) of 16.1 µM, a TGI (SF-295 CNS) of 30.1 µM and a GI50 (SNB-75 CNS) of 12.6 µM. It also gave a TGI (SNB-75 CNS) of 30.5 µM, a GI50 (U251 CNS) of 15.6 µM and a TGI (U251 CNS) of 29.3 µM. The GI50 (UO-31 renal) was 0.636 µM and the TGI (UO-31 renal) was 20.8 µM.
Work on `COc1cc(OC)cc(-c2ccc(-c3ccc(C(=N)N)cn3)s2)c1` yielded a GI50 (HCT-15 colon) of 1.81 µM, a TGI (HCT-15 colon) of 3.49 µM and a GI50 (KM12 colon) of 1.84 µM. For the same compound, the TGI (KM12 colon) was 3.48 µM, the GI50 (LOX IMVI melanoma) was 1.7 µM and the TGI (LOX IMVI melanoma) was 3.2 µM. It also gave a GI50 (MALME-3M melanoma) of 1.87 µM, a TGI (MALME-3M melanoma) of 3.56 µM and a GI50 (NCI-H226 lung) of 10.1 µM. For the same compound, the TGI (NCI-H226 lung) was 27.8 µM, the GI50 (SF-268 CNS) was 1.73 µM and the TGI (SF-268 CNS) was 3.35 µM. It also gave a GI50 (SF-295 CNS) of 1.79 µM, a TGI (SF-295 CNS) of 3.39 µM and a GI50 (SNB-75 CNS) of 1.44 µM. The TGI (SNB-75 CNS) was 2.86 µM, the GI50 (U251 CNS) was 1.8 µM and the TGI (U251 CNS) was 3.49 µM. It also gave a GI50 (UO-31 renal) of 1.65 µM and a TGI (UO-31 renal) of 3.31 µM.
`O=c1nc2[nH]c3c(-c4n[nH]c(=O)[nH]c4=O)cccc3c2n[nH]1` showed a GI50 (HCT-15 colon) greater than 100 µM, a TGI (HCT-15 colon) greater than 100 µM and a GI50 (KM12 colon) greater than 100 µM. For the same compound, the TGI (KM12 colon) was greater than 100 µM, the GI50 (LOX IMVI melanoma) was greater than 100 µM and the TGI (LOX IMVI melanoma) was greater than 100 µM. The GI50 (MALME-3M melanoma) was greater than 100 µM, the TGI (MALME-3M melanoma) was greater than 100 µM and the GI50 (NCI-H226 lung) was greater than 100 µM. The TGI (NCI-H226 lung) was greater than 100 µM, the GI50 (SF-268 CNS) was greater than 100 µM and the TGI (SF-268 CNS) was greater than 100 µM. The GI50 (SF-295 CNS) was greater than 100 µM, the TGI (SF-295 CNS) was greater than 100 µM and the GI50 (SNB-75 CNS) was greater than 100 µM. It also gave a TGI (SNB-75 CNS) greater than 100 µM, a GI50 (U251 CNS) greater than 100 µM and a TGI (U251 CNS) greater than 100 µM. The GI50 (UO-31 renal) was greater than 100 µM and the TGI (UO-31 renal) was greater than 100 µM.
`CC(=O)OCC1OC(n2c(=S)n(-c3ccccc3)c(=O)c3cc(Br)cc(Br)c32)C(OC(C)=O)C(OC(C)=O)C1OC(C)=O` (centres undefined) showed a TGI (HCT-15 colon) greater than 100 µM, a TGI (KM12 colon) greater than 100 µM and a TGI (LOX IMVI melanoma) greater than 100 µM. The TGI (MALME-3M melanoma) was greater than 100 µM, the TGI (NCI-H226 lung) was greater than 100 µM and the GI50 (SF-268 CNS) was 35.2 µM and 94.8 µM. For the same compound, the TGI (SF-268 CNS) was greater than 100 µM, the GI50 (SF-295 CNS) was 11.7 µM and 60.3 µM and the TGI (SF-295 CNS) was 71.4 µM and > 100 µM. For the same compound, the TGI (SNB-75 CNS) was 92.5 µM and > 100 µM, the GI50 (U251 CNS) was 20 µM and 91.9 µM and the TGI (U251 CNS) was greater than 100 µM. For the same compound, the GI50 (UO-31 renal) was > 100 µM and 42.9 µM and the TGI (UO-31 renal) was greater than 100 µM.

Reference: PubChem BioAssay (NCI)
